Data published in patent publication US9957268B2, “1H-pyrrolo[2,3,c]pyridin-7(6H)-ones and pyrazolo[3,4-c]pyridin-7(6H)-ones as inhibitors of BET proteins” (Incyte Corporation, priority 2014, dated 2018).

Key:
KMS.12.BM cells = assay: KMS.12.BM cell viability assay (ATP quantitation, Cell Titer-GLO); type: cell-based; conditions: human myeloma cell line, 3 days, concentration required for 50% cell death
Experimental: KMS. 12.BM cell line (human myeloma) was purchased from JCRB (Osaka, Japan) and maintained in RPMI with 10% FBS culture medium. To measure the cytotoxic activity of the compounds through ATP quantitation, the KMS. 12.BM cells are plated in the RPMI culture medium at 5000 cells/well/per 100 μL into a 96-well polystyrene clear black tissue culture plate (Greiner-bio-one through VWR, NJ), in the presence or absence of a concentration range of test compounds. After 3 days, […] Cell Titer-GLO Luminescent (Promega, Madison, Wis.) cell culture agent is added to each well for 10 minutes at room temperature to stabilize the luminescent signal. This determines the number of viable cells in culture based on quantitation of the ATP present, which signals the presence of metabolically active cells. Luminescence is measured with the Top Count 384 (Packard Bioscience through Perkin Elmer, Boston, Mass.). Compound inhibition is determined relative to cells cultured with no drug and the IC50 is reported as the compound concentration required for 50% cell death.

BRD4-BD2 = BRD4-BD2 (Homo sapiens (Human), UniProt O60885); assay: BRD4 AlphaScreen assay (BRD4-BD2); type: binding; conditions: biotin-labeled tetra-acetylated histone H4 peptide
How it was run: (§1)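 AlphaScreen displacement at room temperature: 75 min with biotin-H4Ac4 peptide (50 nM) and sub-nanomolar BRD4-BD1 or BD2, then 75 min dark incubation with donor/acceptor beads (2-4 μg/mL). Buffer Tris-HCl pH 7.5 with Tween-20, BSA, DTT; DMSO 1.25% for BD1, 0.83% for BD2. IC50 by curve fitting.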

BRD4-BD1 = BRD4-BD1 (Homo sapiens (Human), UniProt O60885); assay: BRD4 AlphaScreen assay (BRD4-BD1); type: binding; conditions: biotin-labeled tetra-acetylated histone H4 peptide
How it was run: as §1

| SMILES | IC50 (KMS.12.BM cells) | IC50 (BRD4-BD2) | IC50 (BRD4-BD1) |
| --- | --- | --- | --- |
| CC(C)C1Oc2c(-c3cn(C)c(=O)c4[nH]ccc34)cc(S(C)(=O)=O)cc2N(C)C1=O (single isomer, unassigned) [Example 47A, 2-isopropyl-4-methyl-8-(6-methyl-7-oxo-6,7-dihydro-1H-pyrrolo[2,3-c]pyridin-4-yl)-6-(methylsulfonyl)-2H-1,4-benzoxazin-3(4H)-one] | – | ≤ 100 nM | ≤ 100 nM |
| CCS(=O)(=O)NCc1cc2c(c(-c3cn(C)c(=O)c4[nH]ccc34)c1)OC(C(C)C)C(=O)N2 (centres unmarked) [Example 39, N-{[2-isopropyl-8-(6-methyl-7-oxo-6,7-dihydro-1H-pyrrolo[2,3-c]pyridin-4-yl)-3-oxo-3,4-dihydro-2H-1,4-benzoxazin-6-yl]methyl}ethanesulfonamide] | – | ≤ 100 nM | ≤ 100 nM |
| Cn1cc(-c2cccc3c2OC(c2ccccc2)C(=O)N3)c2cc[nH]c2c1=O (centres unmarked) [Example 1, 8-(6-methyl-7-oxo-6,7-dihydro-1H-pyrrolo[2,3-c]pyridin-4-yl)-2-phenyl-2H-1,4-benzoxazin-3(4H)-one] | – | ≤ 100 nM | ≤ 100 nM |
| CC(C)[C@H]1Nc2c(cc(S(C)(=O)=O)cc2-c2cn(C)c(=O)c3[nH]ccc23)NC1=O [Example 61, (3R)-3-isopropyl-5-(6-methyl-7-oxo-6,7-dihydro-1H-pyrrolo[2,3-c]pyridin-4-yl)-7-(methylsulfonyl)-3,4-dihydroquinoxalin-2(1H)-one] | – | ≤ 100 nM | ≤ 100 nM |
| CC(C)C1Oc2c(cc(S(C)(=O)=O)cc2-c2cn(C)c(=O)c3[nH]ncc23)NC1=O (centres unmarked) [Example 84, 2-isopropyl-8-(6-methyl-7-oxo-6,7-dihydro-1H-pyrazolo[3,4-c]pyridin-4-yl)-6-(methylsulfonyl)-2H-1,4-benzoxazin-3(4H)-one] | – | ≤ 100 nM | ≤ 100 nM |
| CCS(=O)(=O)c1cc2c(c(-c3cn(C)c(=O)c4[nH]ccc34)c1)OC(C)(C)C(=O)N2 [Example 78, 6-(ethylsulfonyl)-2,2-dimethyl-8-(6-methyl-7-oxo-6,7-dihydro-1H-pyrrolo[2,3-c]pyridin-4-yl)-2H-1,4-benzoxazin-3(4H)-one] | – | ≤ 100 nM | ≤ 100 nM |
| CC(O)c1cc(-c2cn(C)c(=O)c3[nH]ccc23)c2c(c1)N(C)C(=O)C(C)(C)O2 (centres unmarked) [Example 83, 6-(1-hydroxyethyl)-2,2,4-trimethyl-8-(6-methyl-7-oxo-6,7-dihydro-1H-pyrrolo[2,3-c]pyridin-4-yl)-2H-1,4-benzoxazin-3(4H)-one] | – | ≤ 100 nM | ≤ 100 nM |
| CC(C)C1Oc2c(cc(S(C)(=O)=O)cc2-c2cn(C)c(=O)c3[nH]ccc23)NC1=O (centres unmarked) [Example 44, 2-isopropyl-8-(6-methyl-7-oxo-6,7-dihydro-1H-pyrrolo[2,3-c]pyridin-4-yl)-6-(methylsulfonyl)-2H-1,4-benzoxazin-3(4H)-one] | – | ≤ 100 nM | ≤ 100 nM |
| COc1cc2c(c(-c3cn(C)c(=O)c4[nH]ccc34)c1)OC(c1ccccc1)C(=O)N2 (single isomer, unassigned) [Example 24A, 6-methoxy-8-(6-methyl-7-oxo-6,7-dihydro-1H-pyrrolo[2,3-c]pyridin-4-yl)-2-phenyl-2H-1,4-benzoxazin-3(4H)-one] | – | ≤ 100 nM | ≤ 100 nM |
| CC(C)C1Oc2c(cc(C(=O)N3CCOCC3)cc2-c2cn(C)c(=O)c3[nH]ccc23)NC1=O (centres unmarked) [Example 33, 2-isopropyl-8-(6-methyl-7-oxo-6,7-dihydro-1H-pyrrolo[2,3-c]pyridin-4-yl)-6-(morpholin-4-ylcarbonyl)-2H-1,4-benzoxazin-3(4H)-one] | – | ≤ 100 nM | ≤ 100 nM |
| COc1cc(-c2cn(C)c(=O)c3[nH]ccc23)c2c(c1)N(C)C(=O)C(C(C)C)O2 (centres unmarked) [Example 10, 2-isopropyl-6-methoxy-4-methyl-8-(6-methyl-7-oxo-6,7-dihydro-1H-pyrrolo[2,3-c]pyridin-4-yl)-2H-1,4-benzoxazin-3(4H)-one] | – | ≤ 100 nM | ≤ 100 nM |
| Cn1cc(-c2cccc3c2OC(c2ccccn2)C(=O)N3)c2cc[nH]c2c1=O (centres unmarked) [Example 5, 8-(6-methyl-7-oxo-6,7-dihydro-1H-pyrrolo[2,3-c]pyridin-4-yl)-2-pyridin-2-yl-2H-1,4-benzoxazin-3(4H)-one 2,2,2-trifluoroacetate] | – | ≤ 100 nM | 100 to 1000 nM |
| Cn1cc(-c2cc(S(C)(=O)=O)cc3c2NC2(CCC2)C(=O)N3)c2cc[nH]c2c1=O [Example 62, 8′-(6-methyl-7-oxo-6,7-dihydro-1H-pyrrolo[2,3-c]pyridin-4-yl)-6′-(methylsulfonyl)-1′,4′-dihydro-3′H-spiro[cyclobutane-1,2′-quinoxalin]-3′-one] | – | ≤ 100 nM | ≤ 100 nM |
| CC(C)C1Oc2c(-c3cn(C)c(=O)c4[nH]ccc34)cc(S(=O)(=O)C(C)C)cc2N(C)C1=O (centres unmarked) [Example 56, 2-isopropyl-6-(isopropylsulfonyl)-4-methyl-8-(6-methyl-7-oxo-6,7-dihydro-1H-pyrrolo[2,3-c]pyridin-4-yl)-2H-1,4-benzoxazin-3(4H)-one] | – | ≤ 100 nM | ≤ 100 nM |
| CC(C)C1Oc2c(-c3cn(C)c(=O)c4[nH]ccc34)cc(S(=O)(=O)N(C)C)cc2N(C)C1=O (centres unmarked) [Example 71, 2-isopropyl-N,N,4-trimethyl-8-(6-methyl-7-oxo-6,7-dihydro-1H-pyrrolo[2,3-c]pyridin-4-yl)-3-oxo-3,4-dihydro-2H-1,4-benzoxazine-6-sulfonamide] | – | ≤ 100 nM | ≤ 100 nM |
| CC(C)C1Oc2c(cc(S(C)(=O)=O)cc2-c2cn(C)c(=O)c3[nH]ccc23)NC1=O (single isomer, unassigned) [Example 44A, 2-isopropyl-8-(6-methyl-7-oxo-6,7-dihydro-1H-pyrrolo[2,3-c]pyridin-4-yl)-6-(methylsulfonyl)-2H-1,4-benzoxazin-3(4H)-one] | – | ≤ 100 nM | ≤ 100 nM |
| COCc1cc2c(c(-c3cn(C)c(=O)c4[nH]ccc34)c1)OC(C(C)C)C(=O)N2 (centres unmarked) [Example 37, 2-isopropyl-6-(methoxymethyl)-8-(6-methyl-7-oxo-6,7-dihydro-1H-pyrrolo[2,3-c]pyridin-4-yl)-2H-1,4-benzoxazin-3(4H)-one] | – | ≤ 100 nM | ≤ 100 nM |
| Cn1cc(-c2cc(S(C)(=O)=O)cc3c2OC(C)(C)C(=O)N3)c2cc[nH]c2c1=O [Example 45, 2,2-dimethyl-8-(6-methyl-7-oxo-6,7-dihydro-1H-pyrrolo[2,3-c]pyridin-4-yl)-6-(methylsulfonyl)-2H-1,4-benzoxazin-3(4H)-one] | – | ≤ 100 nM | ≤ 100 nM |
| COc1cc2c(c(-c3cn(C)c(=O)c4[nH]ccc34)c1)OC(C)(C)C(=O)N2 [Example 27, 6-methoxy-2,2-dimethyl-8-(6-methyl-7-oxo-6,7-dihydro-1H-pyrrolo[2,3-c]pyridin-4-yl)-2H-1,4-benzoxazin-3(4H)-one] | – | ≤ 100 nM | ≤ 100 nM |
| CC(C)C1Oc2c(-c3cn(C)c(=O)c4[nH]ccc34)cc(C(N)=O)cc2N(C)C1=O (centres unmarked) [Example 19, 2-isopropyl-4-methyl-8-(6-methyl-7-oxo-6,7-dihydro-1H-pyrrolo[2,3-c]pyridin-4-yl)-3-oxo-3,4-dihydro-2H-1,4-benzoxazine-6-carboxamide] | – | ≤ 100 nM | 100 to 1000 nM |
| CC(C)C1Oc2c(cc(C#N)cc2-c2cn(C)c(=O)c3[nH]ccc23)NC1=O (centres unmarked) [Example 17, 2-isopropyl-8-(6-methyl-7-oxo-6,7-dihydro-1H-pyrrolo[2,3-c]pyridin-4-yl)-3-oxo-3,4-dihydro-2H-1,4-benzoxazine-6-carbonitrile] | – | ≤ 100 nM | 100 to 1000 nM |
| COc1cc2c(c(-c3cn(C)c(=O)c4[nH]ccc34)c1)OC(C1CCCC1)C(=O)N2 (single isomer, unassigned) [Example 35B, 2-Cyclopentyl-6-methoxy-8-(6-methyl-7-oxo-6,7-dihydro-1H-pyrrolo[2,3-c]pyridin-4-yl)-2H-1,4-benzoxazin-3(4H)-one] | – | ≤ 100 nM | ≤ 100 nM |
